Values joined by “and” are separate entries in the source; they are usually repeats but may differ in a detail not shown here. Identical values can stand only once. Like-named read-outs stand apart in the source and are kept apart here.
Columns and labels:
[1] = target: CgBdf1 BD2 (Candida glabrata, UniProt Q6FWV7); assay: biochemical; type: binding, C. glabrata
[2] = target: human Brd4 BD1 (Homo sapiens, UniProt O60885); assay: HTRF assay, inhibition of H4ac4 peptide binding; conditions: Brd4 BD1
[3] = target: T1, human Brd4 BD2 (Homo sapiens, UniProt O60885); assay: HTRF assay, inhibition of H4ac4 peptide binding; conditions: Brd4 BD2
T1 construct: GST‐tagged BD2 (residues 349–460) from human Brd4 (UniProt ID O60885); purchased Reaction Biology Corp

[4] = target: T2, CaBdf1 BD1 (Candida albicans, UniProt Q5A4W8); assay: HTRF assay, inhibition of H4ac4 peptide binding; parameters: species or system C. albicans
T2 construct: BD1 (residues 193–327) and BD2 (residues 361–501) from CaBdf1 (Uniprot ID Q5A4W8); made in house; host or cells: E. coli BL21(DE3)
T2 sequence (Q5A4W8 193-327): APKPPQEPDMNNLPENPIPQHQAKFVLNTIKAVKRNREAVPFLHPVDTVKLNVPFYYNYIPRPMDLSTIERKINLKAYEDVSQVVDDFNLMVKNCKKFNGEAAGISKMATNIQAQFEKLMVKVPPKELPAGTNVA

[5] = read-out: HTRF signal, normalized (Figure 5A data)

Sequence of CgBdf1 BD2 (Q6FWV7 entry or part of it): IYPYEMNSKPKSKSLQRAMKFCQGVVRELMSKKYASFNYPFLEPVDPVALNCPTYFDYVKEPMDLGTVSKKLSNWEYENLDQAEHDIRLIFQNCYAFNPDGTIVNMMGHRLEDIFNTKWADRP

SMILES: CC(=O)N1c2ccc(-c3ccc(C(=O)O)cc3)cc2C(Nc2ccc(Cl)cc2)CC1C (stereo not shown) [I-BET726]
- activity at 0.0021 µM ([1]; 24 h, CgBD2, 2.10 nM, read-out: HTRF signal, normalized (Figure 5A data)): 98.3%
- activity at 0.01311 µM ([1]; 24 h, CgBD2, 13.11 nM, read-out: HTRF signal, normalized (Figure 5A data)): 91.8%
- activity at 0.03277 µM ([1]; 24 h, CgBD2, 32.77 nM, read-out: HTRF signal, normalized (Figure 5A data)): 80.2%
- activity at 0.08192 µM ([1]; 24 h, CgBD2, 81.92 nM, read-out: HTRF signal, normalized (Figure 5A data)): 54.9%
- activity at 0.2048 µM ([1]; 24 h, CgBD2, 204.8 nM, read-out: HTRF signal, normalized (Figure 5A data)): 20.4%
- activity at 0.512 µM ([1]; 24 h, CgBD2, 512 nM, read-out: HTRF signal, normalized (Figure 5A data)): 9.19%
- activity at 1.28 µM ([1]; 24 h, CgBD2, 1280 nM, read-out: HTRF signal, normalized (Figure 5A data)): 5.95%
- activity at 0.00524 µM ([1]; 24 h, read-out: HTRF signal, normalized (Figure 5A data)): 93.2%
- IC50 ([1]; Fig 5A, four replicates, read-out: IC50 (μM) BD2, C. gla. Bdf1): 0.085 ± 0.012 µM
- HTRF signal, normalized (Figure 5A data) ([2]; 0.0537 nM): 104.39 and 100.71 and 99.92 and 101.07
- HTRF signal, normalized (Figure 5A data) ([2]; 0.13 nM): 104.60 and 101.29 and 100.85 and 99.75
- HTRF signal, normalized (Figure 5A data) ([2]; 0.34 nM): 101.49 and 102.55 and 101.26 and 101.01
- HTRF signal, normalized (Figure 5A data) ([2]; 0.84 nM): 100.78 and 99.59 and 99.33 and 97.74
- HTRF signal, normalized (Figure 5A data) ([2]; 2.10 nM): 99.49 and 98.84 and 98.60
- HTRF signal, normalized (Figure 5A data) ([2]; 5.24 nM): 95.52 and 94.38 and 93.54 and 94.69
- HTRF signal, normalized (Figure 5A data) ([2]; 13.11 nM): 83.95 and 83.77 and 84.76 and 83.85
- HTRF signal, normalized (Figure 5A data) ([2]; 32.77 nM): 48.83 and 48.92 and 64.32 and 62.36
- HTRF signal, normalized (Figure 5A data) ([2]; 81.92 nM): 17.12 and 16.89 and 27.28 and 27.02
- HTRF signal, normalized (Figure 5A data) ([2]; 204.8 nM): 4.51 and 4.84 and 6.56 and 8.13
- HTRF signal, normalized (Figure 5A data) ([2]; 512 nM): 0.14 and 0.27 and 0.17 and 0.18
- HTRF signal, normalized (Figure 5A data) ([3]; 0.0537 nM): 102.97 and 106.08 and 108.84 and 105.09
- HTRF signal, normalized (Figure 5A data) ([3]; 0.13 nM): 103.72 and 102.37 and 103.68 and 103.57
- HTRF signal, normalized (Figure 5A data) ([3]; 0.34 nM): 94.46 and 91.58 and 95.80 and 94.95
- HTRF signal, normalized (Figure 5A data) ([3]; 0.84 nM): 79.67 and 69.64 and 75.99 and 78.48
- HTRF signal, normalized (Figure 5A data) ([3]; 2.10 nM): 45.84 and 41.04 and 44.03 and 46.83
- HTRF signal, normalized (Figure 5A data) ([3]; 5.24 nM): 8.26 and 9.91 and 8.75 and 10.80
- HTRF signal, normalized (Figure 5A data) ([3]; 32.77 nM): 3.03 and 2.91 and 2.46 and 2.11
- HTRF signal, normalized (Figure 5A data) ([3]; 81.92 nM): 2.74 and 1.64 and 1.67 and 2.48
- HTRF signal, normalized (Figure 5A data) ([3]; 512 nM): 2.01 and 2.50 and 2.14 and 2.65
- remaining activity at 0.0021 µM ([4]; CaBD1, 2.10 nM, read-out: HTRF signal, normalized (Figure 5A data)): 103%
- remaining activity at 0.01311 µM ([4]; CaBD1, 13.11 nM, read-out: HTRF signal, normalized (Figure 5A data)): 96%
- remaining activity at 0.03277 µM ([4]; CaBD1, 32.77 nM, read-out: HTRF signal, normalized (Figure 5A data)): 90.6%
- remaining activity at 0.08192 µM ([4]; CaBD1, 81.92 nM, read-out: HTRF signal, normalized (Figure 5A data)): 66.5%
- remaining activity at 0.2048 µM ([4]; CaBD1, 204.8 nM, read-out: HTRF signal, normalized (Figure 5A data)): 27%
- remaining activity at 0.512 µM ([4]; CaBD1, 512 nM, read-out: HTRF signal, normalized (Figure 5A data)): 5.16%
- IC50 ([4]; Fig 5A, four replicates, read-out: IC50 (μM) BD1, C. alb. Bdf1): 0.27 ± 0.02 µM
- remaining activity at 0.00524 µM [4, 5]: 103%
- remaining activity at 0.01311 µM [4, 5]: 99.9%
- remaining activity at 1.28 µM [4, 5]: 2.74%
- remaining activity at 3.2 µM [4, 5]: 1.61%
